Source: patent EP3741379A1, “COSMETIC COMPOSITION COMPRISING AZADIRACHTA INDICA LEAF EXTRACT” (HONEST CO.,LTD., priority 2019, dated 2020)

Columns and labels:
[1] = Hyaluronic acid + iron 10 ppm; sample at 0.2%
Text: When hyaluronic acid is degraded by heavy metals, the viscosity of the solution decreases, so the lower the viscosity, the greater the degradation of hyaluronic acid.

TRP-1 mRNA = TRP-1 mRNA expression through real-time PCR in α-MSH-treated B16F10; format: cell-based, mouse; details: at 100 µg/mL
Experimental: As cell lines, RAW 264.7, B16F10 and HacaT cells were aliquoted at 3 x 10^5 cells/well to a 6-well plate and cultured in a 5% CO2 incubator at 37°C for 24 hr. Then, the culture medium was replaced with serum-free DMEM, after which, in order to induce cell inflammation, whitening and wrinkle reduction, RAW 264.7 and B16F10 were treated with lipopolysaccharide (LPS) and alpha-melanocyte-stimulating hormone (α-MSH), respectively, at 1 ppm/well, and the cells were treated with each sample solution at different concentrations and then cultured in a 5% CO2 incubator at 37°C for 24 hr. As for HacaT cells, all experimental groups except the untreated group were washed once with PBS, added with PBS, and irradiated with UV-B (300 mJ/cm^2). After irradiation, the cells were treated with the sample solution at different concentrations and cultured for 24 hr to 48 hr. […] Thereafter, RNA was quantified using absorbance, and cDNA was then synthesized using a TProfessional basic thermocycler instrument. Thereafter, 40 PCR cycles of 95°C for 10 sec, 60°C for 15 sec, and 72°C for 20 sec were performed using Power SYBR Green PCR Master Mix reagents, primers and cDNA and using a Step One real-time PCR system, and quantitative analysis was conducted using an analysis program.
The inhibition rate of TRP-1 mRNA expression by AIE was determined through real-time PCR.

Structure (SMILES) | Viscosity [1] | inhibition of TRP-1 mRNA expression (TRP-1 mRNA) [%]
O=C([O-])CN(CCN(CC(=O)O)CC(=O)O)CC(=O)[O-].[Na+].[Na+] [EDTA-2Na] | 7,800 cp | –
OC[C@H]1O[C@@H](Oc2ccc(O)cc2)[C@H](O)[C@@H](O)[C@@H]1O [arbutin] | – | 14.86
